{"source": "paper PMC8704606", "about": "“The Artemiside-Artemisox-Artemisone-M1 Tetrad: Efficacies against Blood Stage P. falciparum Parasites, DMPK Properties, and the Case for Artemiside” (Pharmaceutics, 2021)", "key": {"Toxoplasma gondii (Tg) [1]": {"test_system": "Toxoplasma gondii (Tg)", "design": "method as in PMID 19635951", "details": "read-out: EC50 against Tg in vitro; cited from earlier work"}, "[2]": {"experiment": "Pharmacokinetics and metabolism after iv and po administration", "assay_type": "in vivo", "details": "for half-life: mean ± SD, read-out: t½ (converted); for MRT last: read-out: MRT0-last; for AUC(0-t): up to 7 h", "description": "The plasma concentration-time profiles of the parent compounds and metabolites after administration iv and po to male C57/BL6 mice are presented in Figure 2, Figure 3 and Figure 4. Artemiside was quantifiable up to 24 h in all mice dosed iv and up to 7 h po (lower limit of quantitation LLOQ = 1.6 ng/mL or 0.004 μM) (Figure 2). […] For both artemiside and artemisox, the metabolite artemisone was quantifiable up to 3 h in both the po and iv groups (Figure 2 and Figure 3). Thereby it is confirmed that artemiside is rapidly converted via artemisox into artemisone. Artemisone itself was quantifiable up to three hours post dose (Figure 4). The mean circulating concentrations for the compounds and their metabolites are presented in Table S3a–f in the Supplementary Material 1. The metabolite M1 was also detected upon administration of artemiside, artemisox, and artemisone, but it was not quantified here; chromatograms indicating the presence of M1 are illustrated in Figure S3a–c in the Supplementary Material 1. In addition, the plasma concentration-time curves for artemiside and its metabolites artemisone and M1 following iv and po dosing in the same murine model are presented and discussed in detail elsewhere (cf. Figure 4 in reference).\nAll work was conducted with prior approval of the animal ethics committee of the University of Cape Town in accordance with the South African National Standards for the Care and Use of Animals for Scientific Purposes and guidelines from the South African Department of Health. The requirements and methods for the pharmacokinetics in vivo involving po and iv drug administration, sample extraction, analyses of samples by LC-MS/MS, and data analyses are described elsewhere. For the animal experiments and formulations, the compounds were dissolved in a 10:60:30 mixture of N,N-dimethylacetamide-polypropylene glycol-polyethylene glycol for intravenous dosing (iv) at 5 mg/kg. For the oral dose (po), compounds were individually dosed as a suspension in 0.5% (w/v) hydroxypropylmethylcellulose in water with 0.2% Tween80 at 50 mg/kg to male C57/BL6 mice (n = 3 for each group). For PK sampling, blood samples were collected at predetermined times (0.08, 0.25, 0.5, 1, 3, 5, 7, and 24 h) for both po and iv dosing via tail bleeding into heparinized tubes, centrifuged, and the plasma samples were stored at −80 °C until extraction. For preparation of samples, the frozen plasma samples were thawed and 15 μL was extracted by liquid–liquid extraction using a universal buffer (pH8) containing 10 ng/mL of the internal standard and ethyl acetate, and the extract was vortexed and centrifuged. Calibration standards and quality controls were extracted following the same procedure. Supernatants were dried down, reconstituted, and injected onto the column for LC-MS/MS analysis using an AB SCIEX 5500 QTRAP instrument coupled to an Agilent 1260 HPLC detection system as previously described."}, "Toxoplasma gondii (Tg) [3]": {"test_system": "Toxoplasma gondii (Tg)", "design": "method as in PMID 19635951", "details": "IFN-γ−/− female mice, 10 mg/kg/d for 8 days after cessation of sulfadiazine; cited from earlier work"}, "[4]": {"experiment": "Cytotoxicity (LDH assay) against HepG2 cells", "assay_type": "cell-based", "details": "human, HepG2 cells (hepatocellular carcinoma)", "description": "Cytotoxicity against mammalian hepatocellular carcinoma cells (HepG2 cells) was determined using the lactate dehydrogenase assay (LDH, Biovision Inc., Milpitas, CA, USA). […] Compound working solutions were prepared from 10 mM stock solutions (100% DMSO) in complete DMEM to a final DMSO (Sigma-Aldrich) conc. of <0.1% (vol/vol). […] Data analysis was performed using GraphPad Prism (version 6) software."}, "[5]": {"test_system": "Chinese hamster ovary (CHO) cells", "design": "method as in PMID 29866868, PMID 31998692", "details": "other cell lines including CHO cells; read-out: EC50 cytotoxicity; cited from earlier work"}, "[6]": {"test_system": "asexual blood stages of Pf K1 (drug resistant)", "design": "method as in PMID 29866868, PMID 31998692", "details": "cited from earlier work"}, "HepG2": {"test_system": "HepG2", "details": "ref S3, cited from earlier work"}, "[7]": {"test_system": "P. falciparum asexual blood stage artemisinin-resistant clone PL08-009 (5C) carrying the PfKI3 C580Y mutation", "design": "method as in ref S3", "details": "ref S3, cited from earlier work"}, "[8]": {"test_system": "CQ-sensitive P. berghei N strain", "details": "cited from earlier work"}, "[9]": {"test_system": "early-stage (EG) Pf NF54 gametocytes", "design": "method as in PMID 29866868", "details": "early-stage gametocytes >95% stages II-III; 48 h incubation; ± SEM; cited from earlier work"}, "[10]": {"details": "male, C57/BL6, mouse, plasma, iv 5 mg/kg, parent drug"}, "[11]": {"details": "male, C57/BL6, mouse, plasma, po 50 mg/kg, parent drug"}}, "note": "Like-named read-outs stand apart in the source and are kept apart here."}
{"compound": "C[C@H]1[C@H](N2CCSCC2)O[C@@H]2O[C@@]3(C)CC[C@H]4[C@H](C)CC[C@@H]1[C@@]24OO3", "note": "[Artemiside 5, Artemiside]", "values": [{"measurement": "EC50", "setting": "Toxoplasma gondii (Tg) [1]", "result": 108, "unit": "nM"}, {"measurement": "Mean po circulating concentration", "setting": "[2]; 24 h after po 50 mg/kg artemiside 5", "result": "blq"}, {"measurement": "quantifiable/detectable in plasma up to", "setting": "[2]; iv group, parent drug, LLOQ 1.6 ng/mL or 0.004 μM for artemiside", "result": "up to 24 h"}, {"measurement": "concentration at 0.08 h", "setting": "[2]; male, C57/BL6, mouse, plasma, iv, 5 mg/kg, 0.08 h after iv 5 mg/kg artemiside 5, read-out: Mean iv circulating concentration", "result": 6240, "unit": "nM"}, {"measurement": "concentration at 0.25 h", "setting": "[2]; male, C57/BL6, mouse, plasma, iv, 5 mg/kg, 0.25 h after iv 5 mg/kg artemiside 5, read-out: Mean iv circulating concentration", "result": 3560, "unit": "nM"}, {"measurement": "concentration at 0.5 h", "setting": "[2]; male, C57/BL6, mouse, plasma, iv, 5 mg/kg, 0.5 h after iv 5 mg/kg artemiside 5, read-out: Mean iv circulating concentration", "result": 1710, "unit": "nM"}, {"measurement": "concentration at 1 h", "setting": "[2]; male, C57/BL6, mouse, plasma, iv, 5 mg/kg, 1 h after iv 5 mg/kg artemiside 5, read-out: Mean iv circulating concentration", "result": 930, "unit": "nM"}, {"measurement": "concentration at 3 h", "setting": "[2]; male, C57/BL6, mouse, plasma, iv, 5 mg/kg, 3 h after iv 5 mg/kg artemiside 5, read-out: Mean iv circulating concentration", "result": 180, "unit": "nM"}, {"measurement": "concentration at 5 h", "setting": "[2]; male, C57/BL6, mouse, plasma, iv, 5 mg/kg, 5 h after iv 5 mg/kg artemiside 5, read-out: Mean iv circulating concentration", "result": 86, "unit": "nM"}, {"measurement": "concentration at 7 h", "setting": "[2]; male, C57/BL6, mouse, plasma, iv, 5 mg/kg, 7 h after iv 5 mg/kg artemiside 5, read-out: Mean iv circulating concentration", "result": 37, "unit": "nM"}, {"measurement": "concentration at 24 h", "setting": "[2]; male, C57/BL6, mouse, plasma, iv, 5 mg/kg, 24 h after iv 5 mg/kg artemiside 5, read-out: Mean iv circulating concentration", "result": 8, "unit": "nM"}, {"measurement": "half-life", "setting": "[2]; male, C57/BL6, mouse, plasma, iv, 5 mg/kg, iv 5 mg/kg, parent drug", "result": "1.2 ± 0.1", "unit": "h"}, {"measurement": "concentration at 0.08 h", "setting": "[2]; male, C57/BL6, mouse, plasma, po, 50 mg/kg, 0.08 h after po 50 mg/kg artemiside 5, read-out: Mean po circulating concentration", "result": 85, "unit": "nM"}, {"measurement": "concentration at 0.25 h", "setting": "[2]; male, C57/BL6, mouse, plasma, po, 50 mg/kg, 0.25 h after po 50 mg/kg artemiside 5, read-out: Mean po circulating concentration", "result": 109, "unit": "nM"}, {"measurement": "concentration at 0.5 h", "setting": "[2]; male, C57/BL6, mouse, plasma, po, 50 mg/kg, 0.5 h after po 50 mg/kg artemiside 5, read-out: Mean po circulating concentration", "result": 135, "unit": "nM"}, {"measurement": "concentration at 1 h", "setting": "[2]; male, C57/BL6, mouse, plasma, po, 50 mg/kg, 1 h after po 50 mg/kg artemiside 5, read-out: Mean po circulating concentration", "result": 119, "unit": "nM"}, {"measurement": "concentration at 3 h", "setting": "[2]; male, C57/BL6, mouse, plasma, po, 50 mg/kg, 3 h after po 50 mg/kg artemiside 5, read-out: Mean po circulating concentration", "result": 58, "unit": "nM"}, {"measurement": "concentration at 5 h", "setting": "[2]; male, C57/BL6, mouse, plasma, po, 50 mg/kg, 5 h after po 50 mg/kg artemiside 5, read-out: Mean po circulating concentration", "result": 12, "unit": "nM"}, {"measurement": "concentration at 7 h", "setting": "[2]; male, C57/BL6, mouse, plasma, po, 50 mg/kg, 7 h after po 50 mg/kg artemiside 5, read-out: Mean po circulating concentration", "result": 6, "unit": "nM"}, {"measurement": "half-life", "setting": "[2]; male, C57/BL6, mouse, plasma, po, 50 mg/kg, po 50 mg/kg, parent drug", "result": "1.4 ± 0.04", "unit": "h"}, {"measurement": "clearance", "setting": "[2]; male, C57/BL6, mouse, plasma, iv 5 mg/kg", "result": 58.3, "unit": "mL/min/kg"}, {"measurement": "AUC(0-inf)", "setting": "[2]; [10]", "result": "3.9 ± 0.4", "unit": "µM·h"}, {"measurement": "MRT last", "setting": "[2]; male, C57/BL6, mouse, plasma, iv 5 mg/kg, parent drug, 0-last up to 7 h", "result": "1 ± 0.1", "unit": "h"}, {"measurement": "AUC(0-t)", "setting": "[2]; [10]", "result": "3.8 ± 0.5", "unit": "µM·h"}, {"measurement": "Vd", "setting": "[2]; male, C57/BL6, mouse, plasma, iv 5 mg/kg, read-out: Vss", "result": "4.1 ± 0.5", "unit": "L/kg"}, {"measurement": "Cmax", "setting": "[2]; [11]", "result": "130 ± 10", "unit": "nM"}, {"measurement": "MRT last", "setting": "[2]; [11]", "result": "1.9 ± 0.1", "unit": "h"}, {"measurement": "AUC(0-t)", "setting": "[2]; [11]", "result": "0.36 ± 0.06", "unit": "µM·h"}, {"measurement": "MAT (mean absorption time = MRTpo–MRTiv)", "setting": "[2]; po 50 mg/kg", "result": "0.92 ± 0.20", "unit": "h"}, {"measurement": "quantifiable/detectable in plasma up to", "setting": "[2]; po group, parent drug", "result": "up to 7 h"}, {"measurement": "mice with prolonged survival, reactivation stage", "setting": "Toxoplasma gondii (Tg) [3]", "result": 80, "unit": "%"}, {"measurement": "IC50 at 24 h", "setting": "[4]", "result": "> 50000", "unit": "nM"}, {"measurement": "EC50", "setting": "[5]", "result": "> 241000", "unit": "nM"}, {"measurement": "IC50", "setting": "[6]; asexual blood stage Pf K1, multidrug resistant, SYBR Green I, ± SEM", "result": "1.6 ± 0.4", "unit": "nM"}, {"measurement": "RI (resistance index) = IC50 K1/IC50 NF54", "setting": "[6]", "result": 1.47}, {"measurement": "EC50", "setting": "HepG2; read-out: Cytotoxicity EC50 HepG2", "result": "> 25000", "unit": "nM"}, {"measurement": "SI = EC50 HepG2/IC50 P. berghei sporozoites", "setting": "HepG2", "result": "> 308"}, {"measurement": "IC50", "setting": "[7]; 36 h life cycle, PfKI3 C580Y", "result": 0.29, "unit": "nM"}, {"measurement": "IC90", "setting": "[7]; 36 h life cycle, PfKI3 C580Y", "result": 0.43, "unit": "nM"}, {"measurement": "RI = IC50 for PL08-09 (5C)/IC50 for W2", "setting": "[7]", "result": 0.1}, {"measurement": "P. berghei ED90 po", "setting": "[8]; Peters four-day test, mice, oral daily day 0-3, ref S4 (24)", "result": 1.9, "unit": "mg/kg"}, {"measurement": "P. berghei ED90 sc", "setting": "[8]; Peters four-day test, mice, subcutaneous daily day 0-3, ref S4 (24)", "result": 0.51, "unit": "mg/kg"}, {"measurement": "P. berghei artesunate index sc (ED90 artesunate/ED90 compound)", "setting": "[8]; ref S4", "result": 14.1}, {"measurement": "IC50", "setting": "[9]", "result": "16.4 ± 1", "unit": "nM"}]}
